Measured values: US20230355597A1, “COMPOUNDS, COMPOSITIONS, AND METHODS FOR THE TREATMENT AND PREVENTION OF AVIAN PATHOGENIC E. COLI (APEC)” (OHIO STATE INNOVATION FOUNDATION, priority 2018, published 2023)
Values after ≈ are worked out from the molar mass of the structure shown. Where two headings read alike, the source gives them in different places. Marks after values point to notes of the source that are not given here.

Columns and labels:
APEC O78 [1] = format: cell-based, avian pathogenic Escherichia coli (APEC); conditions: APEC O78, M63 media
APEC O1 = format: cell-based, avian pathogenic Escherichia coli (APEC); conditions: APEC O1, M63 media; MIC/MBC
APEC O2 = format: cell-based, avian pathogenic Escherichia coli (APEC); conditions: APEC O2, M63 media; MIC/MBC
APEC O8 = format: cell-based, avian pathogenic Escherichia coli (APEC); conditions: APEC O8, M63 media; MIC/MBC
APEC O15 = format: cell-based, avian pathogenic Escherichia coli (APEC); conditions: APEC O15, M63 media; MIC/MBC
APEC O18 = format: cell-based, avian pathogenic Escherichia coli (APEC); conditions: APEC O18, M63 media; MIC/MBC
APEC O35 = format: cell-based, avian pathogenic Escherichia coli (APEC); conditions: APEC O35, M63 media; MIC/MBC
APEC O115 = format: cell-based, avian pathogenic Escherichia coli (APEC); conditions: APEC O115, M63 media; MIC/MBC
APEC O109 = format: cell-based, avian pathogenic Escherichia coli (APEC); conditions: APEC O109, M63 media; MIC/MBC
APEC O78-53 = format: cell-based, avian pathogenic Escherichia coli (APEC); conditions: APEC O78-53, M63 media; MIC/MBC
APEC O1-63 = format: cell-based, avian pathogenic Escherichia coli (APEC); conditions: APEC O1-63, M63 media; MIC/MBC
APEC O2-211 = format: cell-based, avian pathogenic Escherichia coli (APEC); conditions: APEC O2-211, M63 media; MIC/MBC
[2] = test system: biofilm embedded APEC O78; assay: MBEC High-throughput assay; format: cell-based, avian pathogenic Escherichia coli (APEC); conditions: for MBEC: biofilm embedded APEC O78, superscript = multiple of MIC (footnote)
Description: Effect against biofilm embedded APEC. The effect of cidal SMs against biofilm embedded APEC was determined using MBEC High-throughput (HTP) assay (Innovotech Inc., AB, Canada). Briefly, 150 µL of 0.05 OD600 adjusted APEC O78 culture was aliquoted into each well of the MBEC device containing polystyrene pegs and incubated at 37° C. for 36 h in LB media under stationary condition. […] The plate was incubated in the dark for 18 h at 37° C. with rotation at 110 rpm. The DMSO (1%) and M63 media were used as positive and negative controls, respectively. Following incubation, MIC of SMs in challenged plate was recorded. The SMs exposed pegs were then transferred to a new 96-well plate containing PBS and sonicated for 30 mins (Aquasonic ultrasonic cleaner, VWR) to disrupt the biofilm. […] Biofilm embedded APEC bacteria were enumerated and minimum biofilm eradication concentration (MBEC) of […] were determined. Two independent experiments were conducted.

APEC O78 [3] = assay: Confocal microscopy bacterial cytological profiling; format: cell-based, avian pathogenic Escherichia coli (APEC); conditions: 2X MBC
Description: Confocal and scanning electron microscopy. Confocal microscopy was used for bacterial cytological profiling (BCP) to identify the cellular pathways targeted by SMs as described previously. […] After incubation, treated cultures were centrifuged, washed, and resuspended in 100 μL PBS. […] Cultures were then centrifuged, washed, and resuspended in PBS to 1⁄10th volume of the original cultures.

APEC O78 [4] = assay: Loss of 260/280 nm absorbing materials assay; format: cell-based, avian pathogenic Escherichia coli (APEC); conditions: 2X MBC, 1 h, *P<0.05 vs DMSO; for Absorbance 260: 260 nm absorbing material in supernatant; for Absorbance 280: 280 nm absorbing material in supernatant
[5] = test system: intracellular APEC O78 in Caco-2 cells; assay: Intracellular survival assay (cidal SMs); conditions: O78, Caco-2, 6 h treatment; superscript = multiple of MIC
[6] = test system: intracellular APEC O78 in HD11 cells; assay: Intracellular survival assay (cidal SMs); conditions: O78, HD11, 6 h treatment; superscript = multiple of MIC
[7] = test system: intracellular APEC O78 in THP-1 cells; assay: Intracellular survival assay (cidal SMs); conditions: O78, THP-1, 6 h treatment; superscript = multiple of MIC
[8] = test system: intracellular APEC O2 in Caco-2 cells; assay: Intracellular survival assay (cidal SMs); conditions: O2, Caco-2, 6 h treatment; superscript = multiple of MIC
[9] = test system: intracellular APEC O2 in HD11 cells; assay: Intracellular survival assay (cidal SMs); conditions: O2, HD11, 6 h treatment; superscript = multiple of MIC
[10] = test system: intracellular APEC O2 in THP-1 cells; assay: Intracellular survival assay (cidal SMs); conditions: O2, THP-1, 6 h treatment; superscript = multiple of MIC
[11] = test system: intracellular APEC O1 in Caco-2 cells; assay: Intracellular survival assay (cidal SMs); conditions: O1, Caco-2, 6 h treatment; superscript = multiple of MIC
[12] = test system: intracellular APEC O1 in HD11 cells; assay: Intracellular survival assay (cidal SMs); conditions: O1, HD11, 6 h treatment; superscript = multiple of MIC
[13] = test system: intracellular APEC O1 in THP-1 cells; assay: Intracellular survival assay (cidal SMs); conditions: O1, THP-1, 6 h treatment; superscript = multiple of MIC
Rif^r APEC O78 = assay: In vivo efficacy of growth inhibitors in APEC infected broiler chickens; conditions: for reduction of average APEC load in internal organs: average of liver, heart, lung and kidney; for reduction of average APEC load in internal organs / reduction of APEC load, Heart / reduction of APEC load, Kidney / reduction of APEC load, Liver / reduction of APEC load, Lung: vs untreated control; for reduction of APEC induced mortality: oral gavage twice a day, 5 days, untreated mortality (58.34%) normalized to 100%; for reduction of APEC lesions severity (%), Air-sacs (airsacculitis) / reduction of APEC lesions severity (%), Heart (pericarditis) / reduction of APEC lesions severity (%), Liver (perihepatitis) / reduction of APEC lesions severity (%), Lung (lung congestion): untreated control = 100%; for Body weight gain (BWG): weight of live chickens before necropsy minus weight before treatment
[14] = test system: intracellular APEC O78, O2, and O1 in infected Caco-2, HD11, and THP1 cells; assay: Intracellular survival assay (cidal SMs), summary over serotypes and cells; conditions: overall ranking

Structure (SMILES): CCN1C(=Cc2ccc3ccccc3[n+]2CC)C=Cc2ccccc21.[Cl-] [SM9]
- MIC (APEC O78 [1]; MIC/MBC): 25 µM
- MBC (APEC O78 [1]; cell prints MIC/MBC): 50 µM
- MBC (APEC O1): 50 µM
- MIC (APEC O1): 25 µM
- MBC (APEC O2): 50 µM
- MIC (APEC O2): 25 µM
- MBC (APEC O8): 50 µM
- MIC (APEC O8): 25 µM
- MBC (APEC O15): 100 µM
- MIC (APEC O15): 25 µM
- MBC (APEC O18): 100 µM
- MIC (APEC O18): 25 µM
- MBC (APEC O35): 50 µM
- MIC (APEC O35): 25 µM
- MBC (APEC O115): 50 µM
- MIC (APEC O115): 25 µM
- MBC (APEC O109): 50 µM
- MIC (APEC O109): 25 µM
- MBC (APEC O78-53): 25 µM
- MIC (APEC O78-53): 25 µM
- MBC (APEC O1-63): 100 µM
- MIC (APEC O1-63): 50 µM
- MBC (APEC O2-211): 25 µM
- MIC (APEC O2-211): 25 µM
- MBEC [2]: 50^b µM
- cytological profile (confocal, FM4-64 / SYTO-9) (APEC O78 [3]): PG synthesis inhibitors
- Absorbance 260 (APEC O78 [4]): 3.99*
- Absorbance 280 (APEC O78 [4]): 2.78*
- SMs intracellular APEC clearance concentration [5]: 50^b µM
- SMs intracellular APEC clearance concentration [6]: 100^c µM
- SMs intracellular APEC clearance concentration [7]: 50^b µM
- SMs intracellular APEC clearance concentration [8]: 100^c µM
- SMs intracellular APEC clearance concentration [9]: 100^c µM
- SMs intracellular APEC clearance concentration [10]: 50^b µM
- SMs intracellular APEC clearance concentration [11]: 100^c µM
- SMs intracellular APEC clearance concentration [12]: 100^c µM
- SMs intracellular APEC clearance concentration [13]: 50^b µM
- reduction of average APEC load in internal organs (Rif^r APEC O78): either exacerbated or did not reduce
- reduction of APEC induced mortality (Rif^r APEC O78): 42.86%
- reduction of APEC lesions severity (%), Air-sacs (airsacculitis) (Rif^r APEC O78): -88.2%
- reduction of APEC lesions severity (%), Heart (pericarditis) (Rif^r APEC O78): -60%
- reduction of APEC lesions severity (%), Liver (perihepatitis) (Rif^r APEC O78): -50%
- reduction of APEC lesions severity (%), Lung (lung congestion) (Rif^r APEC O78): -16.7%
- reduction of APEC load, Heart (Rif^r APEC O78): -0.5 log CFU/g of tissues
- reduction of APEC load, Kidney (Rif^r APEC O78): -0.2 log CFU/g of tissues
- reduction of APEC load, Liver (Rif^r APEC O78): -0.1 log CFU/g of tissues
- reduction of APEC load, Lung (Rif^r APEC O78): -0.9 log CFU/g of tissues
- Body weight gain (BWG) (Rif^r APEC O78): 214.93±31.88
- effectiveness in clearing intracellular APEC serotypes in all tested cells [14]: most effective

Structure (SMILES): CC(=O)OC(C(Br)C(=O)c1ccc([N+](=O)[O-])cc1)C(Cl)(Cl)Cl (stereo not drawn) [SM10]
- MBC (APEC O78 [1]; cell prints MIC/MBC): 50 µM (≈ 21.7 µg/mL)
- MIC (APEC O78 [1]; cell prints MIC/MBC): 25 µM (≈ 10.8 µg/mL)
- MBC (APEC O1): 25 µM (≈ 10.8 µg/mL)
- MIC (APEC O1): 25 µM (≈ 10.8 µg/mL)
- MBC (APEC O2): 50 µM (≈ 21.7 µg/mL)
- MIC (APEC O2): 25 µM (≈ 10.8 µg/mL)
- MBC (APEC O8): 50 µM (≈ 21.7 µg/mL)
- MIC (APEC O8): 50 µM (≈ 21.7 µg/mL)
- MBC (APEC O15): 100 µM (≈ 43.3 µg/mL)
- MIC (APEC O15): 50 µM (≈ 21.7 µg/mL)
- MBC (APEC O18): 100 µM (≈ 43.3 µg/mL)
- MIC (APEC O18): 25 µM (≈ 10.8 µg/mL)
- MBC (APEC O35): 50 µM (≈ 21.7 µg/mL)
- MIC (APEC O35): 25 µM (≈ 10.8 µg/mL)
- MBC (APEC O115): 50 µM (≈ 21.7 µg/mL)
- MIC (APEC O115): 25 µM (≈ 10.8 µg/mL)
- MBC (APEC O109): 50 µM (≈ 21.7 µg/mL)
- MIC (APEC O109): 25 µM (≈ 10.8 µg/mL)
- MBC (APEC O78-53): 50 µM (≈ 21.7 µg/mL)
- MIC (APEC O78-53): 25 µM (≈ 10.8 µg/mL)
- MBC (APEC O1-63): 100 µM (≈ 43.3 µg/mL)
- MIC (APEC O1-63): 50 µM (≈ 21.7 µg/mL)
- MBC (APEC O2-211): 50 µM (≈ 21.7 µg/mL)
- MIC (APEC O2-211): 25 µM (≈ 10.8 µg/mL)
- reduction of biofilms embedded APEC ([2]; at 1X MIC): significantly (P<0.05) reduced
- MBEC [2]: >200 µM
- cytological profile (confocal, FM4-64 / SYTO-9) (APEC O78 [3]): PG synthesis inhibitors
- Absorbance 260 (APEC O78 [4]): 3.98*
- Absorbance 280 (APEC O78 [4]): 2.73*
- SMs intracellular APEC clearance concentration [5]: 100^c µM
- SMs intracellular APEC clearance concentration [6]: 50^b µM
- SMs intracellular APEC clearance concentration [7]: 100^c µM
- SMs intracellular APEC clearance concentration [8]: 100^c µM
- SMs intracellular APEC clearance concentration [9]: 100^c µM
- SMs intracellular APEC clearance concentration [10]: 50^b µM
- SMs intracellular APEC clearance concentration [11]: 100^c µM
- SMs intracellular APEC clearance concentration [12]: >100 µM
- SMs intracellular APEC clearance concentration [13]: >100 µM
- reduction of average APEC load in internal organs (Rif^r APEC O78): 1.3 logs
- reduction of APEC induced mortality (Rif^r APEC O78): 71.42%
- reduction of APEC lesions severity (%), Air-sacs (airsacculitis) (Rif^r APEC O78): -52.9%
- reduction of APEC lesions severity (%), Heart (pericarditis) (Rif^r APEC O78): -28%
- reduction of APEC lesions severity (%), Liver (perihepatitis) (Rif^r APEC O78): 20%
- reduction of APEC lesions severity (%), Lung (lung congestion) (Rif^r APEC O78): 0%
- reduction of APEC load, Heart (Rif^r APEC O78): 1.0 log CFU/g of tissues
- reduction of APEC load, Kidney (Rif^r APEC O78): 2.4 log CFU/g of tissues
- reduction of APEC load, Liver (Rif^r APEC O78): 0.8 log CFU/g of tissues
- reduction of APEC load, Lung (Rif^r APEC O78): 1.4 log CFU/g of tissues
- Body weight gain (BWG) (Rif^r APEC O78): 220.75±38.93
- effectiveness in clearing intracellular APEC serotypes in all tested cells [14]: most effective
